Data published in patent US9474790B2, “Stable, protracted GLP-1/glucagon receptor co-agonists for medical use” (Novo Nordisk A/S, priority 2013, dated 2016).
Numbered stars: 1 amine (or outer) side, 2 acyl side, 3 side chain; on linkers, the order of the positions; unused ones are H or OH. Bridge positions count the residues as written; N and C are the ends. Square brackets hold non-standard residues; d marks the D form. Side chains are listed from the residue outwards. Peptide text beside a SMILES is read from it. I, II: the chains in the order shown. * marks the point of attachment. C18 diacid = O=C(O)CCCCCCCCCCCCCCCCC(=O)*; γGlu = O=C(O)[C@H](CCC(=O)[*:2])N[*:1]; Ac4c = NC1(C(=O)O)CCC1; AEEA = NCCOCCOCC(=O)O; Aib = CC(C)(N)C(=O)O

Each compound was assayed against T1, human glucagon receptor (Homo sapiens, UniProt P47871) (assay: Glucagon receptor binding, 125I-glucagon displacement SPA on isolated membranes). Details: displacement of 125I-glucagon from membranes; read-out: IC50 GlucR.
T1 construct: expressed in transfected cells; host or cells: BHK cells (parent BHK570, CRE luciferase clone BHK/KZ10-20-48), clone pLJ6'-4-25
Method: The purpose of this assay was to test the in vitro receptor binding activity (i.e. affinity) of the glucagon derivatives of the invention. The receptor binding activity is a measure of affinity of a derivative for the human glucagon receptor.
The receptor binding of each compound to the human glucagon receptor was measured in a displacement binding assay. In this type of assay a labelled ligand (in this case 125I-glucagon) is bound to the receptor. Each derivative was added in a series of concentrations to isolated membranes containing the human glucagon receptor and displacement of the labelled ligand is monitored. The receptor binding was reported as the concentration at which half of the labelled ligand is displaced from the receptor, the IC50 value.
In order to test the binding of the derivatives to albumin, the assay may be performed in a very low concentration of serum albumin (max. 0.001% final assay concentration) as well as in the presence of a higher concentration of serum albumin (0.2% final assay concentration). An increase of the IC50 value, in the presence of serum albumin indicates an affinity to serum albumin and represents a method to predict a protracted pharmacokinetic profile of the test substance in animal models.
The following chemicals were used in the assay: DMEM w Glutamax (Gibco 61965-026), Pen/strep (Invitrogen 15140-122), G418 (Invitrogen 10131-027), Versene (Gibco 15040), 1 M Hepes (Gibco 15630), PBS (Invitrogen 14190-094), fetal calf serum (Invitrogen 16140-071), MgCl2 (Merck 1.05832.1000), EDTA (Invitrogen 15575-038), CaCl2 (Sigma, C5080), Tween 20 (Amresco 0850C335), ovalbumin (Sigma A5503), SPA particles (wheat germ agglutinin (WGA) SPA beads, Perkin Elmer RPNQ0001), [125I]-glucagon (produced in-house), OptiPlate™-96 (Packard 6005290).
HME buffer consisted of 25 mM HEPES, 2 mM MgCl2 and 1 mM EDTA, and pH was adjusted to 7.4. Assay buffer consisted of 50 mM HEPES supplemented with 5 mM MgCl2, 1 mM CaCl2, 0.02% Tween 20 and 0.1% Ovalbumin, and pH was adjusted to 7.4.
The cells used in this assay (clone BHK hGCGR A3*25) were BHK cells stable transfected with an expression plasmid containing the cDNA encoding the human glucagon receptor.
The cells were grown at 5% CO2 in DMEM, 10% fetal calf serum, 1% Pen/Strep (Penicillin/Streptomycin) and 1.0 mg/ml of the selection marker G418. To make a membrane preparation the cells were grown to approximately 80% confluence. The cells were washed twice in phosphate-buffered saline and harvested. The cells were pelleted using a brief centrifugation and the cell pellet was kept on ice. Lyse the cells by adding approx. 5 ml HME buffer, mix by pipetting and snap freeze in liquid nitrogen. Thaw quickly and add HME buffer to 10 ml. The cell pellet was homogenised with an ULTRA-THURRAX dispersing instrument for 20-30 sec. The homogenate was centrifuged at 20.000×G, 4° C. for 10 min. The pellet was re-suspended (homogenised) in 1-2 ml HME buffer. The protein concentration was determined. The membranes were aliquoted and snap-frozen in liquid nitrogen and stored at minus 80° C.
1. For the receptor binding assay, 50 μl of the assay buffer was added to each well of an assay plate.
2. Test compounds were serially diluted to give the following concentrations: 8×10EE-7 M, 8×10EE-8 M, 8×10EE-9 M, 8×10EE-10 M, 8×10EE-11 M, 8×10EE-12 M and 8×10EE-13 M. Twenty-five μl were added to appropriate wells in the assay plate.
3. Cell membrane aliquots were thawed and diluted to their working concentration. Fifty μl were added to each well in the assay plate.
4. WGA SPA beads were suspended in assay buffer at 20 mg/ml. The suspension was diluted to 10 mg/ml in assay buffer just prior to addition to the assay plate. Fifty μl were added to each well in the assay plate.
5. The incubation was started by adding 25 μl of 480 pM solution of [125I]-glucagon to each well of the assay plate. A 25 μl aliquot was reserved for measuring total counts/well.
6. The assay plate was incubated for 2 h at 25° C.
7. […]

T1 sequence (P47871 26-477): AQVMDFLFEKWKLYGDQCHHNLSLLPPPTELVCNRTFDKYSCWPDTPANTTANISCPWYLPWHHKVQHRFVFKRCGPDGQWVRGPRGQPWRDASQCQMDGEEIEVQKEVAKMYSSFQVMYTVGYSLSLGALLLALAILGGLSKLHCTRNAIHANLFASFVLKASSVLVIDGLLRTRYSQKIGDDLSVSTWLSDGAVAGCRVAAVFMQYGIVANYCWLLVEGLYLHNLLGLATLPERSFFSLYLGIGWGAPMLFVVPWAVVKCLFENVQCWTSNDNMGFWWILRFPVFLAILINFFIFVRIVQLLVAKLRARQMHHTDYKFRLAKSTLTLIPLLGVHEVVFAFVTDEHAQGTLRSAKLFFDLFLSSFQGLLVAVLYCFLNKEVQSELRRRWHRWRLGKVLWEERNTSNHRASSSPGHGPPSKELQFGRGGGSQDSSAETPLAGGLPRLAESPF

Row | Structure (SMILES) | IC50 [nM]
1 | CC(C)C[C@H](NC(=O)[C@H](CC(C)C)NC(=O)[C@H](Cc1c[nH]c2ccccc12)NC(=O)[C@H](CCC(N)=O)NC(=O)[C@@H](NC(=O)[C@H](Cc1ccccc1)NC(=O)[C@H](CCC(=O)O)NC(=O)[C@H](CCC(N)=O)NC(=O)[C@H](C)NC(=O)[C@H](C)NC(=O)[C@H](CCCCN)NC(=O)[C@H](CO)NC(=O)[C@H](CC(=O)O)NC(=O)[C@H](CC(C)C)NC(=O)[C@H](Cc1ccc(O)cc1)NC(=O)[C@H](CCCCN)NC(=O)[C@H](CO)NC(=O)[C@H](CC(C)C)NC(=O)[C@H](CC(=O)O)NC(=O)[C@H](CO)NC(=O)[C@@H](NC(=O)[C@H](Cc1ccccc1)NC(=O)[C@@H](NC(=O)CNC(=O)[C@H](CCC(N)=O)NC(=O)C(C)(C)NC(=O)[C@@H](N)Cc1c[nH]cn1)[C@@H](C)O)[C@@H](C)O)C(C)C)C(=O)N[C@@H](CC(N)=O)C(=O)N[C@@H](CCCCNC(=O)CC[C@H](NC(=O)CC[C@H](NC(=O)COCCOCCNC(=O)COCCOCCNC(=O)CC[C@H](NC(=O)CCCCCCCCCCCCCCCCC(=O)O)C(=O)O)C(=O)O)C(=O)O)C(N)=O [Example 8, N^ε29-[(4S)-4-carboxy-4-[[(4S)-4-carboxy-4-[[2-[2-[2-[[2-[2-[2-[[(4S)-4-carboxy-4-(17-carboxyheptadecanoylamino)butanoyl]amino]ethoxy]ethoxy]acetyl]amino]ethoxy]ethoxy]acetyl]amino]butanoyl]amino]butanoyl]-[Aib2,Leu10,Lys17,Ala18,Glu21,Leu27,Lys29]-Glucagon amide] (H-H[Aib]QGTFTSDLSKYLDSKAAQEFVQWLLNK([γGlu-γGlu-AEEA-AEEA-γGlu-C18 diacid])-NH2; N-terminus assumed) | 6.7
2 | CC(C)C[C@H](NC(=O)[C@H](Cc1ccc(O)cc1)NC(=O)[C@H](CCCCN)NC(=O)[C@H](CO)NC(=O)[C@H](CC(C)C)NC(=O)[C@H](CC(=O)O)NC(=O)[C@H](CO)NC(=O)[C@@H](NC(=O)[C@H](Cc1ccccc1)NC(=O)[C@@H](NC(=O)CNC(=O)[C@H](CCC(N)=O)NC(=O)C(C)(C)NC(=O)[C@@H](N)Cc1c[nH]cn1)[C@@H](C)O)[C@@H](C)O)C(=O)N[C@@H](CC(=O)O)C(=O)N[C@@H](CCCCNC(=O)CC[C@H](NC(=O)CC[C@H](NC(=O)COCCOCCNC(=O)COCCOCCNC(=O)CC[C@H](NC(=O)CCCCCCCCCCCCCCCCC(=O)O)C(=O)O)C(=O)O)C(=O)O)C(=O)N[C@@H](CCCNC(=N)N)C(=O)N[C@@H](CCCNC(=N)N)C(=O)N[C@@H](C)C(=O)N[C@@H](CCCNC(=N)N)C(=O)N[C@@H](CCC(=O)O)C(=O)N[C@@H](Cc1ccccc1)C(=O)N[C@H](C(=O)N[C@@H](CCC(N)=O)C(=O)N[C@@H](Cc1c[nH]c2ccccc12)C(=O)N[C@@H](CC(C)C)C(=O)N[C@@H](CC(C)C)C(=O)N[C@@H](CC(N)=O)C(=O)N[C@H](C(N)=O)[C@@H](C)O)C(C)C [Example 10, N^ε16-[(4S)-4-carboxy-4-[[(4S)-4-carboxy-4-[[2-[2-[2-[[2-[2-[2-[[(4S)-4-carboxy-4-(17-carboxyheptadecanoylamino)butanoyl]amino]ethoxy]ethoxy]acetyl]amino]ethoxy]ethoxy]acetyl]amino]butanoyl]amino]butanoyl]-[Aib2,Leu10,Lys16,Arg20,Glu21,Leu27]-Glucagon amide] (H-H[Aib]QGTFTSDLSKYLDK([γGlu-γGlu-AEEA-AEEA-γGlu-C18 diacid])RRAREFVQWLLNT-NH2; N-terminus assumed) | 1.2
3 | CC(C)C[C@H](NC(=O)[C@H](Cc1ccc(O)cc1)NC(=O)[C@H](CCCCN)NC(=O)[C@H](CO)NC(=O)[C@H](CC(C)C)NC(=O)[C@H](CC(=O)O)NC(=O)[C@H](CO)NC(=O)[C@@H](NC(=O)[C@H](Cc1ccccc1)NC(=O)[C@@H](NC(=O)CNC(=O)[C@H](CCC(N)=O)NC(=O)C1(NC(=O)[C@@H](N)Cc2c[nH]cn2)CCC1)[C@@H](C)O)[C@@H](C)O)C(=O)N[C@@H](CCC(=O)O)C(=O)N[C@@H](CCC(=O)O)C(=O)N[C@@H](CCCNC(=N)N)C(=O)N[C@@H](CCCNC(=N)N)C(=O)N[C@@H](C)C(=O)N[C@@H](CCCNC(=N)N)C(=O)N[C@@H](CC(=O)O)C(=O)N[C@@H](Cc1ccccc1)C(=O)N[C@H](C(=O)N[C@@H](CCC(N)=O)C(=O)N[C@@H](Cc1c[nH]c2ccccc12)C(=O)N[C@@H](CC(C)C)C(=O)N[C@@H](CC(C)C)C(=O)N[C@@H](CCCCNC(=O)CNC(=O)[C@H](CO)NC(=O)[C@H](CCC(=O)O)NC(=O)CNC(=O)[C@H](CO)NC(=O)CC[C@H](NC(=O)CC[C@H](NC(=O)CCCCCCCCCCCCCCCCC(=O)O)C(=O)O)C(=O)O)C(=O)N[C@H](C(N)=O)[C@@H](C)O)C(C)C [Example 16, N^ε28-[2-[[(2S)-2-[[(2S)-4-carboxy-2-[[2-[[(2S)-2-[[(4S)-4-carboxy-4-[[(4S)-4-carboxy-4-(17-carboxyheptadecanoylamino)butanoyl]amino]butanoyl]amino]-3-hydroxypropanoyl]amino]acetyl]amino]butanoyl]amino]-3-hydroxypropanoyl]amino]acetyl]-[Acb2,Leu10,Glu15,Glu16,Arg20,Leu27,Lys28]-Glucagon amide] (I: H-H[Ac4c]QGTFTSDLSKYLEERRARDFVQWLLKT-NH2 / II: {C18 diacid-γGlu-γGlu}-SGESG; amide I:28-II:C; N-terminus assumed) | 3.9
4 | CC(C)C[C@H](NC(=O)[C@H](Cc1c[nH]c2ccccc12)NC(=O)[C@H](C)NC(=O)[C@@H](NC(=O)[C@H](Cc1ccccc1)NC(=O)[C@H](CCC(=O)O)NC(=O)[C@H](CCCNC(=N)N)NC(=O)[C@H](C)NC(=O)[C@H](CCCNC(=N)N)NC(=O)[C@H](CCCNC(=N)N)NC(=O)[C@H](CCCCNC(=O)CC[C@H](NC(=O)COCCOCCNC(=O)COCCOCCNC(=O)CC[C@H](NC(=O)CC[C@H](NC(=O)CCCCCCCCCCCCCCCCC(=O)O)C(=O)O)C(=O)O)C(=O)O)NC(=O)[C@H](CC(=O)O)NC(=O)[C@H](CC(C)C)NC(=O)[C@H](Cc1ccc(O)cc1)NC(=O)[C@H](CCCCN)NC(=O)[C@H](CO)NC(=O)[C@H](CC(C)C)NC(=O)[C@H](CC(=O)O)NC(=O)[C@H](CO)NC(=O)[C@@H](NC(=O)[C@H](Cc1ccccc1)NC(=O)[C@@H](NC(=O)CNC(=O)[C@H](CCC(N)=O)NC(=O)C(C)(C)NC(=O)[C@@H](N)Cc1c[nH]cn1)[C@@H](C)O)[C@@H](C)O)C(C)C)C(=O)N[C@@H](CC(C)C)C(=O)N[C@@H](CC(N)=O)C(=O)N[C@H](C(N)=O)[C@@H](C)O [Example 19, N^ε29-[(4S)-4-carboxy-4-[[2-[2-[2-[[2-[2-[2-[[(4S)-4-carboxy-4-[[(4S)-4-carboxy-4-(17-carboxyheptadecanoylamino)butanoyl]amino]butanoyl]amino]ethoxy]ethoxy]acetyl]amino]ethoxy]ethoxy]acetyl]amino]butanoyl]-[Aib2,Leu10,Lys16,Arg20,Glu21,Ala24,Leu27]-Glucagon amide] (H-H[Aib]QGTFTSDLSKYLDK([γGlu-AEEA-AEEA-γGlu-γGlu-C18 diacid])RRAREFVAWLLNT-NH2; N-terminus assumed) | 8.5
